Results as given in patent publication US4100276A, “Fusidic acid derivatives” (priority 1975, dated 1978).
Converted amounts (≈) assume the structure as drawn. “Also recorded” adds a separate entry of the source. Counter-ions that a name gives are not always drawn. Like-named read-outs stand apart in the source and are kept apart here.

Legend:
[1] = tested on: Streptococcus pyogenes Leo EC; experiment: In vitro activity, concentration required for 50% inhibition (Table A); format: cell-based; conditions: Streptococcus pyogenes, read-out: Concentration required for 50% inhibition (IC50)
[2] = tested on: Streptococcus sp. Leo EG2; experiment: as above; format: cell-based; conditions: Streptococcus, read-out: Concentration required for 50% inhibition (IC50)
[3] = tested on: Staphylococcus aureus Leo CC178B; experiment: as above; format: cell-based; conditions: Staphylococcus aureus, LEOCC178B, read-out: Concentration required for 50% inhibition (IC50)
[4] = tested on: Staph. aureus, Leo CC178H2 (fusidic acid resistant strain); experiment: as above; format: cell-based; conditions: Staphylococcus aureus, read-out: Concentration required for 50% inhibition (IC50)
[5] = tested on: Staph. aureus Leo CJ145; experiment: as above; format: cell-based; conditions: Staphylococcus aureus, LEOCJ145, read-out: Concentration required for 50% inhibition (IC50)
[6] = tested on: Bacteroides fragilis, Leo JA2; experiment: as above; format: cell-based; conditions: Bacteroides fragilis, LEOJA2, read-out: Concentration required for 50% inhibition (IC50)
[7] = tested on: Corynebact. acnes Leo FN; experiment: as above; format: cell-based, Corynebacterium acnes; conditions: Cutibacterium acnes, read-out: Concentration required for 50% inhibition (IC50)
[8] = tested on: Streptococcus pyogenes; experiment: In vitro bactericidal effect, viable counts (Example 44); format: cell-based; conditions: 10 μg/ml, NIH broth, 37° C; for Viable count after 0 hr: 0 hr (inoculum)
Experimental: In vitro bactericidal effect of 3α,11α-dihydroxy-16β-phenylthiofusida-13(17),24-dien-21-oic acid compared to that of fusidic acid […]
To two tubes containing NIH broth was added: a. The sodium salt of 3α,11α-dihydroxy-16β-phenylthiofusida-13(17),24-dien-21-oic acid (10 μg/ml) […]
b. The sodium salt of fusidic acid (10 μg/ml)
The tubes were inoculated with Streptococcus pyogenes to give 9.2×10^4 organisms per ml, incubated at 37° C, and the viable counts were determined at intervals.
A third tube was treated similarly without addition of any of the antibiotics and used as a control: […]

[9] = tested on: Staphylococcus aureus; experiment: In vitro effect of combination with dihydro-fusidic acid, viable counts (Example 46); format: cell-based; conditions: tubes a, b 10 μg/ml, tube c 5 + 5 μg/ml
Experimental: In vitro-effect of the combination of dihydro-fusidic acid and 3α,11α-dihydroxy-16β-phenylthio-fusida-13(17),24-dien-21- oic acid
To three tubes containing NIH broth was added:
a. The sodium salt of dihydro-fusidic acid (10 μg/ml).
b. The sodium salt of 3α,11α-dihydroxy-16-phenylthiofusida-13(17),24-dien-21-oic acid (10 μg/ml).
c. A mixture of the sodium salts of dihydro-fusidic acid (5 μg/ml) and 3α,11α-dihydroxy-16-phenylthiofusida-13(17),24-dien-21-oic acid (5 μg/ml).
The tubes were inoculated with Staphylococcus aureus to give 5.2 × 10^5 organisms per ml, incubated at 37° C for 96 hours, and the viable counts were determined.
(§1) A fourth tube was treated similarly without addition of any of the antibiotics and used as a control: […]

[10] = tested on: Staphylococcus aureus; experiment: In vitro effect of combination with fusidic acid, viable counts (Example 45); format: cell-based; conditions: 24 hours; for Viable count: 37° C, fusidic acid 1 μg/ml (tube a), isopropylthio compound 3 μg/ml (tube b), mixture 1 + 3 μg/ml (tube c), inoculum 1.4×10^4; for Resistance of surviving organisms to the compound / development of resistance: fusidic acid 1 μg/ml, isopropylthio compound 3 μg/ml, mixture 1 + 3 μg/ml
Experimental: In vitro-effect of the combination of fusidic acid and 3α,11α-dihydroxy-16β-isopropylthio-fusida-13(17),24-dien- 21-oic acid
To 3 tubes containing NIH broth was added:
a. The sodium salt of fusidic acid (1 μg/ml).
b. The sodium salt of 3α,11α-dihydroxy-16-isopropylthiofusida-13(17),24-dien-21-oic acid (3 μg/ml).
c. A mixture of the sodium salts of fusidic acid (1 μg/ml) and 3α,11α-dihydroxy-16-isopropylthiofusida-13(17),24-dien-21-oic acid (3 μg/ml).
The tubes were inoculated with Staphylococcus aureus to give 1.4×10^4 organisms per ml, incubated at 37° C for 24 hours, and the viable counts were determined.
as §1

[11] = tested on: Staph. aureus (Leo CC 178B), fusidic acid sensitive strain; experiment: microbe, parasite or virus in culture; format: cell-based; conditions: for IC50: Staphylococcus aureus
Experimental: Prevention of development of resistance against fusidic acid as a result of treating Staph. aureus with the sodium salt of 3α,11α-dihydroxy-16β-isopropylthiofusida-13(17),24-dien-21-oic acid
After a 48 hours pretreatment of a fusidic acid sensitive strain of Staph. aureus (Leo CC 178B) with subinhibitory concentrations of fusidic acid or the compound of Example 9. The sensitivities of the pretreated cultures and of the original strain against the two compounds were determined. The determinations were made by serial dilutions in NIH-broth, inoculum size 2.10^5 organisms/ml, and read as IC50 after 18 and 48 hours.

[12] = tested on: Staph. aureus (Leo CC 178B), fusidic acid sensitive strain; experiment: microbe, parasite or virus in culture; format: cell-based; conditions: Staphylococcus aureus, isolates from "Comp. of Ex 8 cult." (48 hours pretreatment)
[13] = tested on: bacteria; experiment: In vitro investigations of antibacterial activity (general statements); format: cell-based
[14] = Absorption from the gastro-intestinal tract; conditions: in vivo
[15] = 18 h, isolates from control culture, inoculum 2.10^5 organisms/ml, NIH-broth, read-out: IC50, 18 hours
[16] = 48 h, isolates from control culture, inoculum 2.10^5 organisms/ml, NIH-broth, read-out: IC50, 48 hours
[17] = isolates from fusidic acid pretreated culture (48 hours pretreatment), read-out: IC50, 18 hours
[18] = isolates from fusidic acid pretreated culture (48 hours pretreatment), read-out: IC50, 48 hours

CC(C)=CCCC(C(=O)O)C1=C2C[C@@H](O)[C@H]3[C@@]4(C)CC[C@@H](O)[C@@H](C)[C@@H]4CC[C@]3(C)[C@@]2(C)C[C@@H]1Sc1ccccc1 (stereo partly drawn) [Example 1, 3α,11α-Dihydroxy-16β -phenylthiofusida-13(17), 24-dien-21-oic acid sodium salt]
IC50 [1]: 0.5 µg/mL
IC50 [2]: 1.6 µg/mL
IC50 [3]: 1.6 µg/mL
IC50 [4]: 1.6 µg/mL
IC50 [5]: 3.2 µg/mL
IC50 [6]: 20 µg/mL
IC50 [7]: 0.5 µg/mL
Viable count after 0 hr [8]: 9.2 × 10^4 organisms per ml
Viable count after 1.5 hr ([8]; inoculum 9.2×10^4): 1.4 × 10^4 organisms per ml
Viable count after 4 hr ([8]; inoculum 9.2×10^4): 5.7 × 10^2 organisms per ml
Viable counts after 6 1/2 hours ([9]; 37° C, inoculum 5.2 × 10^5): 1.1 × 10^4 organisms per ml
Viable counts after 2 hours ([9]; 37° C, inoculum 5.2 × 10^5): 5.2 × 10^4 organisms per ml
Viable counts after 24 hours ([9]; 37° C, inoculum 5.2 × 10^5): 3.1 × 10^6 organisms per ml
Resistance of surviving organisms to the compound / development of resistance ([9]; 96 hours): resistant to 3α,11α-dihydroxy-16β-phenylthio-fusida-13(17),24-dien-21- oic acid

CC(C)=CCCC(C(=O)O)C1=C2C[C@@H](O)[C@H]3[C@@]4(C)CC[C@@H](O)[C@@H](C)[C@@H]4CC[C@]3(C)[C@@]2(C)C[C@@H]1SC(C)C (stereo partly drawn) [Example 9, 3α,11α-dihydroxy-16β-isopropylthiofusida-13(17), 24-dien-21-oic acid sodium salt]
Viable count [10]: 1.5 × 10^6 organisms per ml
Resistance of surviving organisms to the compound / development of resistance [10]: resistant to 3α,11α-dihydroxy-16β-isopropylthio-fusida-13(17),24-dien- 21-oic acid
Emergence of resistance against fusidic acid / change of sensitivity after pretreatment ([11]; 48 hours pretreatment with subinhibitory concentrations, sodium salt): Only a slight decrease of the sensitivity; also recorded: totally prohibited the emergence of resistance against fusidic acid
IC50 [11, 15]: 2 µg/mL
IC50 [11, 16]: 5 µg/mL
IC50 [11, 17]: 1.6 µg/mL
IC50 [11, 18]: 5 µg/mL
IC50 ([12]; read-out: IC50, 18 hours): 5 µg/mL
IC50 ([12]; read-out: IC50, 48 hours): 16 µg/mL

CC(=O)O[C@H]1C[C@@]2(C)[C@@H](C[C@@H](O)[C@H]3[C@@]4(C)CC[C@@H](O)[C@@H](C)[C@@H]4CC[C@@]32C)/C1=C(\CCC=C(C)C)C(=O)O [Fusidic acid]
IC50 [1]: 0.63 µg/mL (≈ 1.22 µM)
IC50 [2]: 1.6 µg/mL (≈ 3.1 µM)
IC50 [3]: 0.025 µg/mL (≈ 0.0484 µM)
IC50 [4]: 32 µg/mL (≈ 61.9 µM)
IC50 [5]: 16 µg/mL (≈ 31 µM)
IC50 [6]: 1.6 µg/mL (≈ 3.1 µM)
IC50 [7]: 0.2 µg/mL (≈ 0.387 µM)
Resistance of surviving organisms to the compound / development of resistance [10]: resistant to fusidic acid
IC50 [11, 15]: 0.016 µg/mL (≈ 0.031 µM)
IC50 [11, 16]: 1 µg/mL (≈ 1.94 µM)
IC50 [11, 17]: 7.9 µg/mL (≈ 15.3 µM)
IC50 [11, 18]: 50 µg/mL (≈ 96.8 µM)
Antibacterial effect, bactericidal/bacteriostatic (in words) [13]: solely bacteriostatic
Absorption from the gastro-intestinal tract (in words) [14]: absorbed efficiently from the gastro-intestinal tract
IC50 ([12]; read-out: IC50, 18 hours): 0.016 µg/mL (≈ 0.031 µM)
IC50 ([12]; read-out: IC50, 48 hours): 0.02 µg/mL (≈ 0.0387 µM)

CC(=O)O[C@H]1C[C@@]2(C)[C@@H](C[C@@H](O)[C@H]3[C@@]4(C)CC[C@@H](O)[C@@H](C)[C@@H]4CC[C@@]32C)/C1=C(\CCC=C(C)C)C(=O)O [sodium salt of fusidic acid]
Viable count after 0 hr [8]: 9.2 × 10^4 organisms per ml
Viable count after 1.5 hr ([8]; inoculum 9.2×10^4): 1.2 × 10^5 organisms per ml
Viable count after 4 hr ([8]; inoculum 9.2×10^4): 1.5 × 10^5 organisms per ml
Viable count after 7 hr ([8]; inoculum 9.2×10^4): 1.3 × 10^5 organisms per ml
Viable count [10]: 1.8 × 10^8 organisms per ml
